Measured values from publication PMC8037723, “Functional Characterization of an Anthocyanin Dimalonyltransferase in Maize” (Molecules, 2021).

Tested on: T1, Aat1
T1 construct: full length, 6x-His-tag in pET-30a(+) (EcoRI/HindIII), E. coli Rosetta-gami 2(DE3)pLysS, Ni-NTA purified
Test: UHPLC product quantification at […] nm, Michaelis-Menten fit
Assay type: biochemical, Zea mays
Settings: 100 mM potassium phosphate pH 8.0, 30 °C

[1] = acyl donor, 120 µM cyanidin 3-O-glucoside, donor 5-30 µM
[2] = 60 µM malonyl-CoA, substrate 5-120 µM

Row | Compound | Km [1] [µM] | Km [2] [µM] | also measured
1 | CC(C)(COP(=O)(O)OP(=O)(O)OC[C@H]1O[C@@H](n2cnc3c(N)ncnc32)[C@H](O)[C@@H]1OP(=O)(O)O)[C@@H](O)C(=O)NCCC(=O)NCCSC(=O)CC(=O)O [Malonyl-CoA] | 40.12 ± 0.04 | – | –
2 | OC[C@H]1O[C@@H](Oc2cc3c(O)cc(O)cc3[o+]c2-c2ccc(O)cc2)[C@H](O)[C@@H](O)[C@@H]1O [Pelargonidin 3-O-Glucoside] | – | 8.92 ± 0.41 | –
3 | COc1cc(-c2[o+]c3cc(O)cc(O)c3cc2O[C@@H]2O[C@H](CO)[C@@H](O)[C@H](O)[C@H]2O)ccc1O [Peonidin 3-O-Glucoside] | – | 5.14 ± 0.93 | –
4 | CC(C)(COP(=O)(O)OP(=O)(O)OC[C@H]1O[C@@H](n2cnc3c(N)ncnc32)[C@H](O)[C@@H]1OP(=O)(O)O)[C@@H](O)C(=O)NCCC(=O)NCCSC(=O)CCC(=O)O [Succinyl-CoA] | 60.09 ± 0.02 | – | –
5 | OC[C@H]1O[C@@H](Oc2cc3c(O)cc(O)cc3[o+]c2-c2ccc(O)c(O)c2)[C@H](O)[C@@H](O)[C@@H]1O [compound 1, Cyanidin 3-O-Glucoside] | – | 13.1 ± 0.23 | –
6 | O=C(O)CC(=O)OC[C@H]1O[C@@H](Oc2cc3c(O)cc(O)cc3[o+]c2-c2ccc(O)c(O)c2)[C@H](O)[C@@H](O)[C@@H]1O [compound 2, Cyanidin 3-O-6”-Malonylglucoside] | – | – | Km (60 µM malonyl-CoA, substrate 2.5-30 µM, semi-preparative fraction of 91.95% purity): 1.33 ± 3.97 µM
